5 molecules from PubChem BioAssay (NCI) can be followed below.

Some test systems named below: OVCAR-8 ovarian; UACC-62 melanoma; SF-268 CNS; HL-60(TB) leukemia; SF-295 CNS; OVCAR-5 ovarian; SW-620 colon; MOLT-4 leukemia; SR leukemia; LOX IMVI melanoma.
Assay in all cases: NCI anticancer screen, dose series, 48 h

Molecules are shown by their SMILES.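 Values below derive from 48-hour exposures of cells grown in 96-well plates, with endpoints linearly interpolated between the two concentrations bracketing the appropriate inhibition level. Abbreviation: GI50, concentration required for 50% inhibition of growth. TGI marks complete inhibition of growth.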

On to `O=S(=O)(c1ccccc1)c1nccs1`, for which the TGI with OVCAR-8 ovarian, in the assay with UACC-62 melanoma, in the assay with SF-268 CNS, in the assay with HL-60(TB) leukemia, in the assay with SF-295 CNS and in the assay on OVCAR-5 ovarian was over 100 µM in each case. The TGI with SW-620 colon, in the assay on MOLT-4 leukemia, in the assay with SR leukemia and in the assay on LOX IMVI melanoma was over 100 µM each time.
Regarding `O=C1OC(c2ccccc2)(c2ccccc2)c2ccc3ccc(F)cc3c21`, the TGI in the assay on OVCAR-8 ovarian, in the assay with UACC-62 melanoma, with SF-268 CNS, with HL-60(TB) leukemia, in the assay on SF-295 CNS and in the assay with OVCAR-5 ovarian was over 100 µM each time. In addition, the TGI in the assay on SW-620 colon, with MOLT-4 leukemia, in the assay on SR leukemia and with LOX IMVI melanoma was over 100 µM in each case.
For `COc1cc(OC)c(/C=C/C(=O)c2ccc(Nc3ncnc4ccccc34)cc2)c(OC)c1`, the GI50 in the assay with OVCAR-8 ovarian was 1.34 µM; with UACC-62 melanoma, 0.599 µM; in the assay with SF-268 CNS, 1.37 µM; in the assay with HL-60(TB) leukemia it was 0.389 µM; in the assay on SF-295 CNS, 0.353 µM; with OVCAR-5 ovarian, 1.88 µM. Moreover, the GI50 in the assay with SW-620 colon is 0.403 µM; in the assay with MOLT-4 leukemia, 0.898 µM; in the assay on SR leukemia, 0.142 µM; in the assay on LOX IMVI melanoma, 1.06 µM. For the same molecule, the TGI turned out to be 3.54 µM with OVCAR-8 ovarian; 2.18 µM with UACC-62 melanoma; 4.4 µM in the assay on SF-268 CNS; 2.19 µM with HL-60(TB) leukemia; 1.92 µM in the assay with SF-295 CNS; 5.32 µM in the assay on OVCAR-5 ovarian. The TGI was 2.64 µM in the assay with SW-620 colon, over 100 µM with MOLT-4 leukemia, 1.1 µM in the assay with SR leukemia and 6.52 µM in the assay with LOX IMVI melanoma.
Regarding `Cc1cc2c(cc1C)[n+](=O)c(C(=O)/C=C/c1ccc3c(c1)OCO3)c(C)n2[O-]`, the TGI in the assay with OVCAR-8 ovarian was over 100 µM; in the assay on UACC-62 melanoma it was 59.5 µM; in the assay on SF-268 CNS, over 76.9 µM; in the assay with HL-60(TB) leukemia, over 100 µM; with SF-295 CNS, 50 µM; in the assay with OVCAR-5 ovarian it was over 100 µM. Moreover, the TGI in the assay on SW-620 colon is over 100 µM; in the assay on MOLT-4 leukemia it was over 100 µM; with SR leukemia it was over 100 µM; with LOX IMVI melanoma, over 85.2 µM.
With `CCn1c(-c2c(Cl)cc(O)cc2Cl)cc2c(Cl)cc(O)cc21`, the TGI with OVCAR-8 ovarian is 18.7 µM; in the assay on UACC-62 melanoma, 32.8 µM; with SF-268 CNS, 16.1 µM; in the assay with HL-60(TB) leukemia, 26.2 µM; in the assay with SF-295 CNS, 19.8 µM; in the assay with OVCAR-5 ovarian it was 65 µM. Also, the TGI in the assay on SW-620 colon is 41 µM; in the assay on MOLT-4 leukemia, over 100 µM; with SR leukemia it was over 100 µM; in the assay with LOX IMVI melanoma, 32.8 µM.
